# From patent US20190100557A1, “PRO[…], A GENE TRANSFER ENHANCER” (Pharis Biotec GmbH, priority 2013, published 2019)
# Non-standard residues stand in square brackets, D forms with d. Residues, ends and D or L forms follow the SMILES beside them. pGlu = O=C1CC[C@@H](C(=O)O)N1
# How the values were obtained:
# [1] = Storage stability in aqueous solution followed by HPLC (FIG. 1); format: physicochemical; details: storage at 4° C. for 13 days, in vitro
# Description: FIG. 1 is a high pressure liquid chromatography (HPLC) chromatogram of protransduzin A and protransduzin B.
# In the left column of FIG. 1 (HPLC chromatogram), results for protransduzin A upon storage for 0-13 days at −20° C. and at 4° C. (13 days) are compared with the results for protransduzin B under the same conditions.
# [2] = test system: cells; experiment: Transduction of cells with protransduzin B (vectors preincubated with peptide fibrils); format: cell-based; details: protransduzin B 25 μg/ml added to vectors, cells incubated 2 days
# Description: Dissolve 0.5 mg of protransduzin B in 50 μl of DMSO. Then add 450 μl of PBS to the solution, fibrils forming within 3 min. Add this stock solution (1 mg/ml) to the vectors to obtain a concentration of protransduzin B of 25 μg/ml. Vortex the solution for 1 min, then centrifuge with 5000 g for 5 min. The supernatant is discarded, and the pellet is suspended in a little PBS and added to the cells. The cells are incubated in an incubator for 2 days.
structure (smiles),measurement,setting,value
CC[C@H](C)[C@H](NC(=O)[C@H](CCCCN)NC(=O)[C@H](CS)NC(=O)[C@@H]1CCC(=O)N1)C(=O)N[C@@H](CCCCN)C(=O)N[C@@H](CCC(N)=O)C(=O)N[C@H](C(=O)N[C@H](C(=O)N[C@@H](CC(N)=O)C(=O)N[C@@H](CCSC)C(=O)N[C@@H](Cc1c[nH]c2ccccc12)C(=O)N[C@@H](CCC(N)=O)C(=O)O)[C@@H](C)CC)[C@@H](C)CC [protransduzin B] ([pGlu]CKIKQIINMWQ-OH),degradation upon storage (HPLC peak height),[1],hardly degraded at all
same,cells transduced,[2],Up to 96%
same,transduction rate,[2],significantly enhanced
